Test results published in patent US11712434B2, “Compound having anti-cancer effect, and preparation method therefor and use thereof” (3D MEDICINES (BEIJING) CO., LTD., priority 2016, dated 2023).
Several values for one entry are separate records, joined by “and”; a condition that tells them apart may be missing. Equal entries are not always repeated. Entries after “also recorded” stand apart in the source; their conditions may differ.

Assay: Plasma stability study of compound 8 in rat plasma
Format: in vitro ADME, SD rat
Conditions: for Residual compound 8 concentration: 37° C., Repeat 1 and 2
Method: The purpose of this example was to investigate the stability of incubation of compound 8 in rat plasma (compound 8 was metabolized to form intermediate compound 12 and Linifanib, intermediate compound 12 was further metabolized to form Linifanib), and the metabolites were quantified and analyzed, and the stability of the incubation system was verified by a positive drug, which provided a reference for the evaluation of the drug-forming properties of the compound.
1. Instruments and Materials • Instrument: API3000 LC/MS, ABI • Materials: Male SD rats (200-250 g), Beijing Vital River • Test sample: positive drug and its metabolites M1 and M2, compound 8 and its metabolite compound 12 and Linifanib.
2. Compound 8 Plasma Stability Study • Test animal • Type: SD rat; Quantity: 2 • Sex: male; weight: 200-250 g;
Experimental Procedure • 1). Animal blood was collected, blood samples were placed in EDTA anticoagulation tubes, centrifuged at 3000 g for 15 min at 4° C., plasma was separated, and 2 blood samples were mixed in equal volumes; • 2). Weighed a certain amount of compound 8 and dissolved in DMSO:MeOH (2:8), prepared into 200 μM mother liquor by purity conversion, and added the compound to plasma to reach a final concentration of 1 μg/mL in plasma. The organic ratio in the system was not more than 0.5%. • 3). Incubated in a 37° C. water bath and set the sampling points to 0, 0.5, 1, 2, 4, 6, 8 h. At each sampling point, 100 μL of each sample was collected and 300 μL of acetonitrile (with internal standard) was added for precipitation, centrifuged at 12,000 rpm for 5 min, and 200 μL of supernatant was taken for analysis by LC-MS/MS. • 4). Configured the standard curve to quantify compound 8, compound 12 and Linifanib

Cc1ccc(F)c(NC(=O)Nc2ccc(-c3cccc4[nH]nc(NC(=O)CCCCCCCCCCCNC(=O)C[C@H](N)C(=O)N[C@@H](CCC(=O)N[C@@H](CCC(=O)N[C@@H](CCC(=O)N[C@@H](CCC(=O)O)C(=O)O)C(=O)O)C(=O)O)C(=O)O)c34)cc2)c1 [Compound 8]
amount of Compound 12 and Linifanib produced by metabolism: extremely small | Residual compound 8 concentration (0 h): 1200 ng/mL and 680 ng/mL | Residual compound 8 concentration (0.5 h): 1190 ng/mL and 1450 ng/mL | Residual compound 8 concentration (1 h): 1460 ng/mL and 1620 ng/mL | Residual compound 8 concentration (2 h): 960 ng/mL and 1040 ng/mL | Residual compound 8 concentration (4 h): 876 ng/mL and 868 ng/mL | Residual compound 8 concentration (6 h): 1110 ng/mL and 1190 ng/mL | Residual compound 8 concentration (8 h): 1200 ng/mL and 680 ng/mL | stability in plasma (up to 8 h): relatively stable; also recorded: very good
